# Assays:
# Assay in all cases: relative viability (nuclei count vs DMSO), 5 days (fraction); higher = more cells survive
# [1] = compound: C1CC2=C(C1)C=C(C=C2)OC3=NC(=C4C(=N3)N(C=N4)CC5=CC=C(C=C5)C6=CC=CC=C6)N[C@@H](CC7=CC=CC=C7)CO [QS11] + COc1cccc2cc(-c3nc([C@H]4CC[C@H](C(=O)O)CC4)n4ncnc(N)c34)[nH]c12 [OSI-027] (partner 0.5 µM)
# How it was run: (§1)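 Lung cancer cell lines were seeded in 1536-well plates and dosed by pin tool the next day, with either a single drug or a fixed anchor-drug dose combined with five library-drug doses (not always all listed) spaced in √10 steps. Five days later, one step fixed the cells and stained their nuclei (final 0.05% Triton X-100, 1% formaldehyde, 1 ug/ml Hoechst), and nuclei were counted on 4× images. Relative viability is the nuclei count in treated wells divided by the count in vehicle wells, and each value is the median of duplicate plates.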
# [2] = compound: C1CC2=C(C1)C=C(C=C2)OC3=NC(=C4C(=N3)N(C=N4)CC5=CC=C(C=C5)C6=CC=CC=C6)N[C@@H](CC7=CC=CC=C7)CO [QS11] + Nc1ncn([C@H]2C[C@H](O)[C@@H](CO)O2)c(=O)n1 [Decitabine] (partner 2 µM)
# How it was run: as §1
# [3] = compound: CC1=C(C=C(C=C1)NC(=O)C2=CC(=CC=C2)C(C)(C)C#N)NC3=CC4=C(C=C3)N=CN(C4=O)C [AZ628] + Nc1ncn([C@H]2C[C@H](O)[C@@H](CO)O2)c(=O)n1 [Decitabine] (partner 2 µM)
# How it was run: as §1
# [4] = compound: C[As](C)SC[C@H](NC(=O)CC[C@H](N)C(=O)O)C(=O)NCC(=O)O [Darinaparsin] + COc1cc2c(Oc3ccc(NC(=O)C4(C(=O)Nc5ccc(F)cc5)CC4)cc3F)ccnc2cc1OCCCN1CCOCC1 [Foretinib] (partner 0.25 µM)
# How it was run: as §1
Cell Line,relative viability ([1]; first compound 0.08 µM),relative viability ([1]; first compound 0.253 µM),relative viability ([1]; first compound 0.8 µM),relative viability ([1]; first compound 2.53 µM),relative viability ([1]; first compound 8 µM),relative viability ([2]; first compound 0.08 µM),relative viability ([2]; first compound 0.253 µM),relative viability ([2]; first compound 0.8 µM),relative viability ([2]; first compound 2.53 µM),relative viability ([2]; first compound 8 µM),relative viability ([3]; first compound 0.08 µM),relative viability ([3]; first compound 0.253 µM),relative viability ([3]; first compound 0.8 µM),relative viability ([3]; first compound 2.53 µM),relative viability ([3]; first compound 8 µM),relative viability ([4]; first compound 0.08 µM),relative viability ([4]; first compound 0.8 µM),relative viability ([4]; first compound 2.53 µM),relative viability ([4]; first compound 8 µM)
NCI-H460,0.719,0.756,0.663,0.446,0.257,0.578,0.477,0.298,0.503,0.382,0.512,0.456,0.38,0.532,0.165,1.04,1.04,1.03,1.33
NCI-H520,0.196,0.265,0.297,0.175,0.268,0.567,0.513,0.531,0.537,0.531,0.563,0.488,0.547,0.472,0.382,1.12,0.662,0.845,0.871
NCI-H596,0.715,0.688,0.679,0.66,0.732,1.26,0.87,0.971,1.17,1.04,1.02,1.12,1.13,1.1,0.933,0.906,0.974,0.734,0.67
NCI-H647,0.585,0.64,0.596,0.642,0.732,0.391,0.44,0.349,0.374,0.309,0.383,0.452,0.329,0.383,0.332,1.53,1.31,1.01,1.45
NCI-H650,0.513,0.513,0.548,0.483,0.456,0.283,0.365,0.347,0.298,0.322,0.349,0.396,0.46,0.335,0.336,1.09,1.05,1.13,1.03
NCI-H661,0.696,0.75,0.69,0.618,0.549,0.511,0.585,0.474,0.554,0.46,0.601,0.491,0.445,0.451,0.482,1.01,0.995,1.08,1.26
NCI-H727,0.576,0.708,0.579,0.404,0.461,0.767,0.855,0.762,0.899,0.61,0.918,,,0.644,0.345,0.917,0.863,1.11,1
NCI-H838,0.339,0.366,0.362,0.378,0.359,0.494,0.483,0.43,0.422,0.411,0.49,0.504,0.476,0.455,0.479,1.19,1.03,0.856,1.23
NCI-H1355,0.392,0.324,0.334,0.35,0.334,0.34,0.31,0.333,0.349,0.346,0.414,0.322,0.381,0.344,0.265,1.09,0.91,0.854,0.768
NCI-H1395,0.603,0.718,0.626,0.735,0.637,0.699,0.791,0.71,0.789,0.801,0.678,0.698,0.667,0.647,0.788,1.13,0.958,0.944,0.952
NCI-H1437,0.95,0.946,0.77,0.834,0.827,0.557,0.649,0.432,0.585,0.531,0.606,0.548,0.531,0.613,0.659,1.35,1.3,1.24,1.32
NCI-H1650,0.58,0.549,0.642,0.547,0.396,0.453,0.447,0.296,0.56,0.406,0.586,0.485,0.429,0.382,0.615,0.869,1.06,0.791,1.33
NCI-H1651,0.618,0.645,0.733,0.625,0.662,0.591,0.641,0.54,0.566,0.578,0.67,0.571,0.653,0.683,0.593,0.951,0.885,0.851,0.777
NCI-H1666,0.856,0.696,0.667,0.604,0.606,0.746,0.748,0.653,0.699,0.485,0.744,0.691,0.625,0.62,0.657,0.995,0.888,1.19,1.06
NCI-H1734,0.66,0.548,0.594,0.517,0.49,0.538,0.532,0.478,0.457,0.51,0.515,0.549,0.5,0.457,0.344,1.04,0.801,0.815,0.99
NCI-H1755,0.685,0.725,0.592,0.604,0.486,0.625,0.715,0.535,0.685,0.671,0.763,0.691,0.718,0.73,0.676,0.994,0.931,0.868,1.08
NCI-H1793,0.248,0.27,0.277,0.341,0.332,0.474,0.424,0.51,0.477,0.453,0.616,0.442,0.458,0.441,0.184,0.766,0.77,0.524,0.829
NCI-H1915,0.61,0.617,,0.622,0.591,0.248,0.266,,0.267,0.287,0.271,0.259,0.267,0.254,0.169,1.2,1.08,0.958,1.25
NCI-H1944,0.41,0.387,,0.378,0.314,0.393,0.421,,0.419,0.366,0.426,0.434,0.414,0.416,0.282,0.917,0.898,0.731,0.995
NCI-H1975,0.737,0.674,0.741,0.659,0.805,0.369,0.358,0.397,0.376,0.358,0.402,0.358,0.344,0.338,0.265,1.13,0.994,0.975,1.12
NCI-H1993,0.582,0.674,0.547,0.538,0.5,0.614,0.621,0.655,0.543,0.573,0.587,0.518,0.639,0.463,0.55,0.738,0.761,0.788,0.921
NCI-H2009,0.66,0.639,0.53,0.448,0.462,0.362,0.426,0.364,0.409,0.371,0.404,0.36,0.313,0.32,0.291,0.435,1.18,1.15,1.33
NCI-H2023,0.477,0.344,0.52,0.486,0.364,0.231,0.227,0.217,0.249,0.224,0.292,0.229,0.24,0.228,0.252,0.847,0.78,0.821,0.904
NCI-H2085,0.724,0.655,0.886,0.724,0.831,0.478,0.549,0.49,0.56,0.557,0.534,0.563,0.569,0.575,0.609,1.12,0.975,0.863,0.902
NCI-H2087,0.523,0.5,,0.532,0.532,0.287,0.325,0.252,0.305,0.299,0.267,0.153,0.184,0.137,0.146,1.44,1.09,1.03,1.37
NCI-H2126,0.685,0.697,0.727,0.653,0.646,0.588,0.63,0.573,0.574,0.473,0.567,0.571,0.632,0.606,0.593,1.17,1.1,1.05,1.13
NCI-H2170,0.691,0.692,0.703,0.8,0.743,0.487,0.466,0.398,0.43,0.5,0.448,0.483,0.446,0.439,0.456,1.01,0.965,0.992,1.19
NCI-H2342,0.643,0.703,0.611,0.663,0.636,0.744,0.724,0.715,0.718,0.77,0.837,0.651,0.779,0.726,0.747,0.959,1.04,1.03,1.17

# Source: the supplement of paper PMC10307832
